Test results: patent US6056941A, “Kit for the preparation of technetium TC 99m teboroxime myocardial perfusion agent” (priority 1999, dated 2000)

Test: Clearance following intravenous administration in normal subjects (heart and liver)
Type: in vivo, human
Text: Table II approximates the effective clearance of Technetium Tc-99 m Teboroxime from the heart and liver.

C[B-](ON=C1CCCCC1=N[O-])(ON=C1CCCCC1=NO)ON=C1CCCCC1=NO.[99Tc+3].[Cl-] [Technetium Tc-99 m Teboroxime, ^99m Tc (chlorine) (1,2-cyclohexanedione dioxime)3 methyl boron]
clearance from the circulation: rapidly cleared from the circulation | time of peak heart uptake (heart): ≤ 2 min | effective clearance, Heart (heart, 5 min): 2.3% | effective clearance, Heart (heart, 10 min): 1.7% | effective clearance, Heart (heart, 15 min): 1.5% | effective clearance, Heart (heart, 20 min): 1.3% | effective clearance, Heart (heart, 1 hr): 1.1% | effective clearance, Heart (heart, 2 hr): 0.8% | effective clearance, Heart (heart, 4 hr): 0.6% | effective clearance, Liver (5 min): 23% | effective clearance, Liver (10 min): 33% | effective clearance, Liver (15 min): 32% | effective clearance, Liver (20 min): 27% | effective clearance, Liver (1 hr): 24% | effective clearance, Liver (2 hr): 18% | effective clearance, Liver (4 hr): 17%
